Patent publication US7314866B2, “Ku-70-derived Bax-suppressing peptides and use thereof for the protection of damaged cells” (Bloodcenter of Wisconsin, Inc., priority 2002, dated 2008)
Entries after “also recorded” stand apart in the source; their conditions may differ. Values belong to the molecule of their own block, whether it stands above or below them. Where a SMILES comes first, the peptide text is derived from it. Where no end group is shown, it is not given here. The star is where a group is joined. FITC = O=C1OC2(c3ccc(O)cc3Oc3cc(O)ccc32)c2ccc(NC(=S)*)cc21; Biotin = O=C1N[C@H]2[C@H](CS[C@H]2CCCCC(=O)*)N1; Cbz = O=C(OCc1ccccc1)*; CH2F = FC*

Columns and labels:
endogenous Bax = target: T1, endogenous Bax (Mus musculus, UniProt Q07813); assay: Scatchard analysis of the binding of FITC-V5 and Bax; details: Bax-immunodepleted cell lysates
T1 construct: endogenous in cells; host or cells: Ku70-deficient mouse embryonic fibroblasts, cytosol fraction
T1 sequence (Q07813 whole entry): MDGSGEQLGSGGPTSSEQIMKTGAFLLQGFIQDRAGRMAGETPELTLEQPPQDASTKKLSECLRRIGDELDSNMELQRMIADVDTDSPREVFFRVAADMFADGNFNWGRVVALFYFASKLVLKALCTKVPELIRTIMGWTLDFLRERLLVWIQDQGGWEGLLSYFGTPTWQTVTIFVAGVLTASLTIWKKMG
Description: (§1) FIG. 4A: One day following UVC-irradiation or STS-treatment in the absence (UV and STS) or presence of 200 uM negative control (NC) peptide (UV+NC and STS+NC) or V5 peptide (UV+V5 and STS+V5), subcellular fractionation of HeLa cells (10^6 cells) was performed. FoF1 ATP synthase subunit α (F1α) was used to mark the mitochondrial fraction. HM stands for “Heavy Membrane” fraction containing mitochondria. FIG. 4C: cytochrome c release from mitochondria is inhibited by BIP, but not z-VAD-fmk. HeLa cells (10^6 cells) were treated with 200 nM STS in the presence or absence of 200 uM negative control (NC) peptide, V5 peptide, or z-VAD-fmk for 24 hours. Cytochrome c released from mitochondria into cytosol was analyzed by subcellular fractionation followed by Western blot analysis of cytochrome c (cyt c) as well as mitochondrial FoF1-ATP-synthase subunit F1α (F1α) as described in Methods. […] Caspase activity was assessed as described in Methods. […]
Ku70-deficient MEFs (10^7 cells) were lysed in 200 ul of “detergent-free hypotonic buffer” (hypotonic (5 mM NaCl) phosphate buffered saline, pH 7.4) containing protease inhibitors (100 times dilution of Protease Inhibitors Cocktail; Sigma) according to the previously reported method (Hsu and Youle, supra, 1998). […] Kd was calculated by Scatchard plot. […]

HEK293T cells = assay: Bax-induced apoptosis in HEK293T cells (pcDNA3-Bax transfection, Hoechst staining); format: cell-based, human; details: added to the culture medium
Description: FIG. 1 illustrates that new peptides designed from Ku70 show anti-Bax activity. FIG. 1A: scheme of Ku70 full-length (Ku70 wt), Ku701-577 (Ku70Δ578–609), or Ku70578-609 (Ku70Δ1–577). FIG. 1C: HEK293T cells were transfected with 1.0 ug of pCMV-2B-control vector (Control) or pcDNA3-Bax (Bax) together with 2.0 ug of pCMV-2B-Ku70 wt (Ku70 wt), pCMV-2B-Ku701-577 (Ku701-577), or pCMV-2B-Ku70578-609 (Ku70578-609). All the cells were also co-transfected with 0.5 ug pEGFP for the marking of transfected cells. Apoptosis in the transfected cells was analyzed 24 hours following transfection with Hoechst dye staining of the nucleus as described in Methods. FIG. 1D: HEK293T cells were incubated with 200 uM peptide composed of Ku70578-587 or Ku70596-600 for 4 hours using BioPorter reagent, and then transfected with 1.0 ug of pCDNA3-control vector (Control) or pcDNA3-Bax (Bax). The number of apoptotic cells was determined as described in FIG. 1C. FIG. 1E: HEK293T cells (10^6 cells) were incubated with 200 uM IPMIK (negative control peptide) or VPMLK (V5) and PMLKE (P5) peptides at the indicated concentrations for 1 hour and then incubated cells were transfected with 1.0 ug of pcDNA3-Bax. Also, unincubated cells were transfected with 1.0 ug of pcDNA3-Bax in the presence or absence of 200 uM z-VAD-fmk. The number of apoptotic cells was determined as described in FIG. 1C. FIG. 1F: Summary of the anti-Bax activity and sequence of all peptides used.
HEK293T and HeLa cells were cultured in MEM supplemented with 10% fetal bovine serum (FBS) and Du145 cells and mouse embryonic fibroblasts (MEFs) were in DMEM with 10% FBS. Transfection of the plasmids was performed by SuperFect (Qiagen) according to the manufacturer's manual. Apoptosis was induced by pcDNA3-human Bax (Bax-encoding plasmid)-transfection, Staurosporin (STS)-treatment and UVC-irradiation. The amount of the plasmids, the concentration of STS, and the energy of UVC-irradiation are described in the figure legends. Apoptosis in the transfected cells was analyzed as follows: A plasmid encoding enhanced green fluorescent protein (EGFP) (0.5 ug to 10^6 cells) was transfected to all the groups to mark the transfected cells. After the treatment, cells were stained with Hoechst dye and cells with apoptotic nuclei were counted in GFP-expressing cells under the fluorescent microscope as described by Matsuyama, et al., J. Biol. Chem. 273:30995–31001, 1998. Each point in the figures showing percentages of apoptosis represents the mean +/−SE of three experiments. Caspase activities of cells were measured by detecting the cleavage of fluorogenic substrate of Caspase (DEVD-afc) as previously described.
BioPorter-based peptide delivery was performed 4 hours before apoptosis induction.

Caspase = Caspase activity (DEVD-afc cleavage); format: cell-based, human; details: HeLa cells, 200 nM STS, 200 uM, 24 hours
Description: as §1
HEK293T and HeLa cells were cultured in MEM supplemented with 10% fetal bovine serum (FBS) and Du145 cells and mouse embryonic fibroblasts (MEFs) were in DMEM with 10% FBS. […] Apoptosis in the transfected cells was analyzed as follows: A plasmid encoding enhanced green fluorescent protein (EGFP) (0.5 ug to 10^6 cells) was transfected to all the groups to mark the transfected cells. […]

Bax = assay: Co-precipitation of biotin-labeled peptides and endogenous Bax using streptavidin beads; format: binding, human; details: HEK293T lysates, CHAPS buffer
Bak = target: T2, Bak (human, UniProt Q16611 2-211); assay: streptavidin bead pull-down from HEK293T CHAPS lysates, Western blot of Bak
T2 sequence (looked up): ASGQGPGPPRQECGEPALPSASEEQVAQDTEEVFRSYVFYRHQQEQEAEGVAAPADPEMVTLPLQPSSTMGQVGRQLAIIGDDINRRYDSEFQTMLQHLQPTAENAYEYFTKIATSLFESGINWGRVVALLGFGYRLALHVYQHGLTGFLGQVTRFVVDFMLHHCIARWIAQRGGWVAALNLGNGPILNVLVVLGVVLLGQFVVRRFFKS

human Bax [1] = target: T3, human Bax (human, UniProt Q07812 1-192); assay: streptavidin bead pull-down from HEK293T CHAPS lysates, Western blot of Bax
T3 construct: Protein in cell lysates or cells, not purified; also called endogenous Bax; pcDNA3-Bax (human)
T3 sequence (Q07812 whole entry): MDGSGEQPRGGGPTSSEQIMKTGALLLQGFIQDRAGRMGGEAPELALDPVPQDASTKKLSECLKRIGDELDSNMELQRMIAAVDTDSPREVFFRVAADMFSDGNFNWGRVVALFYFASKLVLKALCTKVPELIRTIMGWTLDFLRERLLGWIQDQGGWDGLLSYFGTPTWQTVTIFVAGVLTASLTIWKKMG
Description: Endogenous protein: HEK293T (10^7 cells) were lysed in 200 ul of "CHAPS-based buffer" (150 mM NaCl, 10 mM Hepes, pH 7.4, 1.0% CHAPS) containing protease inhibitors (100 times dilution of Protease Inhibitors Cocktail; Sigma) according to the previously reported method (Hsu and Youle, *J. Biol. Chem.* 273:10777–10783, 1998). After pre-cleaning of 600 ul of the sample with 50 ul of Protein G-Sepharose at 4° C. for 1 hour, immunoprecipitations were performed by incubating 200 ul of lysates with 20 ul of Protein G-Sepharose preabsorbed with 2 ug of anti-Bax polyclonal (BD-Pharmingen) or anti-Ku70 monoclonal antibody (BD-Pharmingen) at 4° C. for 2 hours. In some cases, 2 ug of anti-Bax monoclonal antibody (clone 6A7, BD Pharmingen) was used to detect active form of Bax. After extensive washing in the buffer, beads were boiled in 40 ul of Laemmli buffer and 20 ul of the eluted proteins were subjected to SDS-PAGE. *Co-precipitation of biotin-labeled peptides and endogenous Bax using streptavidin beads*: HEK293T cells (10^7 cells) lysed in 200 ul CHAPS-based buffer were incubated with biotin-labeled negative control (NC) peptide or VPMLK (V5; SEQ ID NO: 1) peptide for 1 hour. The concentrations of NC and V5 peptide labeled with biotin are described in the figure legends. […]

human Bax [2] = target: T3, human Bax; assay: conclusion drawn from the biotin-peptide streptavidin pull-down
Description: The interaction of BIP and Bax was confirmed by experiments using the system of biotin-labeled BIP and streptavidin beads. Biotin-labeled BIP (biotin-VPMLK; SEQ ID NO: 1), but not negative control peptide (biotin-IPMIK; SEQ ID NO: 5) precipitated Bax from the cell lysates when the streptavidin beads were added to the samples.
Endogenous protein: HEK293T (10^7 cells) were lysed in 200 ul of "CHAPS-based buffer" (150 mM NaCl, 10 mM Hepes, pH 7.4, 1.0% CHAPS) containing protease inhibitors (100 times dilution of Protease Inhibitors Cocktail; Sigma) according to the previously reported method (Hsu and Youle, *J. Biol. Chem.* 273:10777–10783, 1998). After pre-cleaning of 600 ul of the sample with 50 ul of Protein G-Sepharose at 4° C. for 1 hour, immunoprecipitations were performed by incubating 200 ul of lysates with 20 ul of Protein G-Sepharose preabsorbed with 2 ug of anti-Bax polyclonal (BD-Pharmingen) or anti-Ku70 monoclonal antibody (BD-Pharmingen) at 4° C. for 2 hours. In some cases, 2 ug of anti-Bax monoclonal antibody (clone 6A7, BD Pharmingen) was used to detect active form of Bax. […]

Molecule: COC(=O)C[C@H](NC(=O)[C@H](C)NC(=O)[C@@H](NC(=O)OCc1ccccc1)C(C)C)C(=O)CF [z-VAD-fmk] (Cbz-Val-Ala-Asp(OMe)-CH2F)
- Suppression of Bax-induced apoptosis in cell culture (HEK293T cells): showed anti-apoptotic activities
- Suppression of Caspase activation (Caspase): suppresses STS-induced Caspase activation

Molecule: IPMIK [mutant of V5 with V and L changed to I, used as negative control peptide, reference compound]
- Suppression of Bax-induced apoptosis in cell culture (HEK293T cells): lost its activity to suppress apoptosis; also recorded: did not suppress Bax-mediated cell death
- Interaction with Bax (precipitation from cell lysates) (Bax): fails to interact with Bax

B1: Biotin-labeled BIP (biotin-VPMLK; SEQ ID NO: 1) (peptide)
peptide: Biotin-VPMLK
notes: also called biotin-labeled V5 peptide (BIP)
- binding result (Bak): no binding (tested: 200 uM)

The remaining lines, values ahead:

- Binding of FITC peptide to cellular components (endogenous Bax): No significant binding
Molecule: CSCC[C@H](NC(=O)[C@@H]1CCCN1C(=O)[C@@H](NC(=S)Nc1ccc2c(c1)C(=O)OC21c2ccc(O)cc2Oc2cc(O)ccc21)C(C)C)C(=O)N[C@@H](CC(C)C)C(=O)N[C@@H](CCCCN)C(=O)O [FITC-labeled BIP] ({FITC}-VPMLK-OH; N-terminus and C-terminus assumed)

- binding result (human Bax [1]): no binding (tested: 200 uM)
B2: biotin-IPMIK (SEQ ID NO: 5) negative control peptide (peptide)
peptide: Biotin-IPMIK
notes: also called biotin-labeled negative control (NC) peptide

- binding result (human Bax [2]): no binding
B3: IPMIK (SEQ ID NO: 5) negative control (NC) peptide (peptide)
peptide: IPMIK
notes: also called negative control peptide; mutant peptide IPMIK
